Assay results from patent US20050021241A1, “Gain of function sorting for drug discovery and development” (priority 2003, published 2005).

Legend:
[1] = system: 5 HT2 A receptor cell lines; test: FACS sorting of responding cells from a mixture of three color-coded 5 HT2 A receptor cell lines (WT, S3.36 A, S5.46 A); type: cell-based, human
Description: FIG. 18 illustrates the results obtained during steps of GOF sorting of variant Human Serotonin Receptor Type 2A populations. Three populations of cells containing one of three versions of the human serotonin receptor type 2A were stained three distinct “colors” recognizable by the FACS. The populations were combined in equal proportions into one population. One mutant is the S3.36 A, the other mutant is the S5.46 A mutant and the third group is the wild type receptor (WT). The cells were also loaded with the Ca^2+i indicator dye, indol, so that receptor-mediated signaling events could be monitored through the Ca^2+i mobilization response. The combined population was stimulated with increasing concentrations of the test compound, naphthyl piperazine, and the percentage of cells within each colored subpopulation showing a threshold Ca^2+i response was quantified. […] The sorted cells were then re-analyzed to evaluate the subpopulation from which they were derived, based on the distinct “color” used to stain each subpopulation. The identity of the sorted populations that were taken from sorting at several different compound concentrations is shown in the bottom half of the figure. […] At the high and low ends of the concentration range there was no selective responsiveness by the S3.36 A variant cells, and the FACS selected each of the populations equally. […]

[2] = biological target: T1, S3.36 A variant of the 5HT2 A receptor (Homo sapiens, UniProt P28223, S159A); test: Ca2+i mobilization response (Indo-1, flow cytometry) of cells expressing variant serotonin receptor; type: cell-based
T1 construct: expressed in transfected cells
Description: Step 1: To observe GOF behavior it is necessary to understand the range of compound concentration that activates the wild type receptor (WT). GOF variants will respond to concentrations of the test compound at least 5 fold lower than the minimal concentration that activates the WT. An illustration is shown in FIG. 18 where a dose-response curve for one null function mutant receptor (NF), the serotonin 2 A receptor (5 HT2 A) mutant 5.46, and the WT are shown in the lower graph. The two curves are virtually identical. […] At very low concentrations, only the GOF 3.36 mutant bearing cells are isolated, and the WT and NF 5.46 mutant are only selected as the compound concentration is raised to relatively high concentrations. It will also be necessary to understand the time kinetics of the WT response so that an appropriate time window (TW) region of the response can be selected for the analysis and sort.
FIG. 18 illustrates the results obtained during steps of GOF sorting of variant Human Serotonin Receptor Type 2A populations. Three populations of cells containing one of three versions of the human serotonin receptor type 2A were stained three distinct “colors” recognizable by the FACS. The populations were combined in equal proportions into one population. One mutant is the S3.36 A, the other mutant is the S5.46 A mutant and the third group is the wild type receptor (WT). The cells were also loaded with the Ca^2+i indicator dye, indol, so that receptor-mediated signaling events could be monitored through the Ca^2+i mobilization response. The combined population was stimulated with increasing concentrations of the test compound, naphthyl piperazine, and the percentage of cells within each colored subpopulation showing a threshold Ca^2+i response was quantified. […] The sorted cells were then re-analyzed to evaluate the subpopulation from which they were derived, based on the distinct “color” used to stain each subpopulation. The identity of the sorted populations that were taken from sorting at several different compound concentrations is shown in the bottom half of the figure. […] At the high and low ends of the concentration range there was no selective responsiveness by the S3.36 A variant cells, and the FACS selected each of the populations equally.
GOF sorting enhances drug discovery by providing the ability to identify in a few months the Gain of Function (GOF) receptor variants that normally took years to identify. It was hypothesized that GOF variants could be isolated efficiently from a pool of cells, each expressing a single variant, by sorting responding cells at low concentrations of agonist, using Fluorescence Activated Cell Sorting (FACS). […]

T1 sequence (P28223 whole entry S159A): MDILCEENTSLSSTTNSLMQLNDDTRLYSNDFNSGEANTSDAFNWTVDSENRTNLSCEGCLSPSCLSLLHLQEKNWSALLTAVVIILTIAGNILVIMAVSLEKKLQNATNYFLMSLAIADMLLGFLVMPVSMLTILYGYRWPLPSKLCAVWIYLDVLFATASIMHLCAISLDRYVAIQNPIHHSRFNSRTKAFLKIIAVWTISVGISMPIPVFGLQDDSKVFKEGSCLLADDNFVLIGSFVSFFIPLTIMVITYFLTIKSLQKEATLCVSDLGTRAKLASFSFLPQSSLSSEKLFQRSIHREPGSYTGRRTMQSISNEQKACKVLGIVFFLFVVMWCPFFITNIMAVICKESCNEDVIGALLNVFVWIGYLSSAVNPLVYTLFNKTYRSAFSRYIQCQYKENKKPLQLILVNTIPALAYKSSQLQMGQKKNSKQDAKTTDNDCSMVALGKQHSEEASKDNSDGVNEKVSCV

c1ccc2c(N3CCNCC3)cccc2c1 [Naphthyl Piperazine]
share of GOF S3.36 A variant in the sorted population ([1]; 50-100 nM agonist concentration range): 90%
agonist concentration range of selective sorting of GOF variant S3.36 A from wild type and S5.46 A ([1]; FACS sort of responding cells, mixed pool of 3 cell lines): 10 to 300 nM
agonist concentration at which cells expressing the S3.36 A variant were becoming activated ([2]; WT and S5.46 A variant not activated at this concentration): 3 nM
fold lower EC50 of S3.36 A variant than the wild type or the S5.46 A variant ([2]; agonist dose-response, S3.36 A vs wild type or S5.46 A 5HT2 A receptor): 1,000 fold
minimum concentration that activates the 3.36 mutant cells, fold lower than that required to activate the WT ([2]; mutant 3.36 vs WT, dose-response curve FIG. 18): more than 100 fold
affinity of S3.36 A variant for the compound compared with S5.46 A and WT ([2]; percentage of cells showing a threshold Ca2+i response, increasing concentrations): greater affinity
